One test has as its system S. aureus. The test can be described thus: Rapid kill test, 15 second time kill. In kind it is cell-based. Particulars: 100 ul of 104 S. aureus culture, 15 second time kill.
Test [1] concerns P. aeruginosa (ATCC 15442). Description: Zone of inhibition test of coated endotracheal tubes, modified Kirby-Bauer method. The class given is cell-based. Particulars: coated endotracheal tube segments, 24 hours, ETT diameter (10 mm) is included.
Procedure: Efficacy of the coated tubes was evaluated by zone of inhibition test against P. aeruginosa (ATCC 15442) after 24 hours.
Method: The anti-microbial efficacy of the coated endotracheal tube (ETT) was evaluated by zone of inhibition test against P. aeruginosa (ATCC 15442) according to the modified Kirby-Bauer method. Trypticase soy agar (TSA) plates were seeded with 0.3 mL of overnight grown bacterial culture diluted to 107 colony forming units (CFU) per mL.
Antimicrobial coated ETTs were cut into 0.5 cm segments and embedded vertically into the agar plate. Uncoated ETT segments were used as control. After 24 hours of incubation at 37° C., the diameters of zones of inhibition around the ETT segments, including the diameters of the ETT, were measured.

`CC(=O)N[C@@H](CS)C(=O)O` [N-acetyl cystein (NAC, 1%), N-acetyl cystein] came in with a Log10 reduction with S. aureus of 0.34 Log10. In addition, in test [1], the “Zone of inhibition against P. aeruginosa” value came out at 0 mm.

On to `[H]/N=C(\N/C(=N/[H])NCCCCCCNC(=N)NC(=N)Nc1ccc(Cl)cc1)Nc1ccc(Cl)cc1` [Chlorhexidine (CHX, 0.3%), Chlorhexidine], for which, in the test on S. aureus, the Log10 reduction was determined as 4.51 Log10. Besides, in test [1], the “Zone of inhibition against P. aeruginosa” value was determined as 20 mm.

These data come from patent publication US20200352991A1, “POLYMER FILMS WITH ANTIMICROBIAL AGENTS” (The Trustees of Columbia University in the City of New York, priority 2017, published 2020).
